Results on 16 compounds are retold here after patent US4331670A (priority 1979, dated 1982).

A word on the mortality: it is the percentage killed.

Each structure is given as a SMILES string.

One test has as its system Plutella xylostella. Put plainly: Test 11: mortality of larvae of Plutella xylostella on treated cabbage leaf. The test is classed as in vivo. Particulars: foliar, 192 h, leaf dipped, emulsifiable concentrate Composition No. 3, eight days, read-out: Percent mortality. An excerpt:
Each emulsifiable concentrate of each active ingredient as Composition No. 3 was dispersed in water at a concentration of 800 ppm. Each leaf of cabbage was dipped into each emulsion for about 10 seconds and taken up and dried in air.
A wet filter paper was put in each Petri dish (diameter of 9 cm), and each treated leaf was put on the filter paper. Larvae of Plutella xylostella at 2nd to 3rd instar were charged and the dish was covered with a cap and kept in a constant temperature chamber with lighting at 28° C. Eight days after the charge, mortality was measured and each percent mortality was calculated.

Another test has as its system Diaporthe citri. Put plainly: Test 5: minimum growth inhibition concentration on PDA medium. The settings on record: fungus B: Diaporthe citri. In kind it is cell-based. The method, then:
(§1) A mixture of 9 ml. of a potato-glucose-agar medium (PDA medium) and 1 ml. of each active ingredient was poured into each Petri-dish to be solidified. […] The following fungi were used.

For another test, the system named is Alternaria solani. The description is as above. In kind it is cell-based. Particulars: fungus C: Alternaria solani. The method, then:
as §1

Another test concerns Venturia inaequalie. Described as above. In kind it is cell-based. The settings on record: fungus D: Venturia inaequalie. As for the experimental part: as §1
The next test has as its system Rhizoctonia solani. Put plainly: whole plant or invertebrate. In kind it is in vivo, Rhizoctonia solani (rice plant, Chukyo Asahi). The settings on record: in Oryza sativa, 120 h, read-out: Preventive value.
The next test concerns Phytophthora infestans. The test is classed as cell-based. Particulars: PDA medium; fungus A: Phytophthora infestans.
Test [1] deals with Collectotrichum lagenarium. Put plainly: Test 3: protective value on cucumber inoculated with Collectotrichum lagenarium. The test is classed as in vivo, Collectotrichum lagenarium (cucumber plant, Suyo). The settings on record: 500 ppm, 10 ml sprayed; lesions six days after inoculation. As for the experimental part: In each unglazed pot having a diameter of 9 cm, cucumber plant (Suyo) was cultured. At one leaf stage, 10 ml. of each solution of each active ingredient having a concentration of 500 ppm was sprayed by a spray gun. After maintaining the pot in a green-house at 24° to 25° C. for one day, each spore suspension of Collectotrichum lagenarium was sprayed. Six days after the inoculation, number of lesions on the first leaf of seedling was observed. The protective value was calculated as Test 1.

The subject of another test is Plasmopara viticola. Kind of test: whole plant or invertebrate. In kind it is in vivo, Plasmopara viticola (cucumber plant, Suyo). The settings on record: in Cucumis sativus, 144 h, read-out: Protective value.
For a further test, the system named is Pyricularia orzae. Put plainly: whole plant or invertebrate. In kind it is in vivo, Pyricularia orzae (rice plant, Chukyo Asahi). Particulars: in Oryza sativa, 120 h, read-out: Protective value.
In a further test the test system is Sphaerotheca fuliginea. Kind of test: whole plant or invertebrate. The test is classed as in vivo, Sphaerotheca fuliginea (cucumber plant, Suyo). Particulars: Podosphaera fuliginea, in Cucumis sativus, 240 h, read-out: Protective value.
Another test deals with Botrytis cinerea. Put plainly: Test 9: protective value on cucumber inoculated with Botrytis cinerea. Particulars: 72 h; for pest or weed control at 250 ppm: 10 ml sprayed, lesion length three days after inoculation. The test is classed as in vivo, Botrytis cinerea (cucumber plant, Suyo). The method, then: In each unglazed pot having a diameter of 9 cm, cucumber plant (Suyo) was cultured. At one leaf stage, 10 ml. of each solution of each active ingredient having a concentration of 250 ppm was sprayed by a spray gun. After maintaining the pot in a green-house at 24° to 25° C. for one day, a disc (punched agar disc) obtained by culturing Botrytis cinerea on a potato-glucose-agar medium (PDA medium) was put on the leaf of cucumber to inoculate them. Three days after the inoculation, lengths of lesions were measured and each protective value was calculated as Test 2.
In accordance with the test, except the concentration of the active ingredient was decreased, the comparative tests of Compound No. 7 and Reference compound were carried out.

For another test, the system named is Callosobruchus chinensis. Kind of test: Test 7: mortality of adults of Callosobruchus chinensis on film in Petri-dish. In kind it is in vivo. Particulars: 400 μg per Petri-dish of 9 cm, 25° C., 24 hours, read-out: Percent mortality. As for the experimental part: Each active ingredient was dissolved in acetone to prepare each solution having the specific concentration. 1 Ml. of the solution (400 μg. of each active ingredient) was uniformly adhered on the inner bottom surface of Petri-dish having a diameter of 9 cm to form a film. In the dish, 15 of adults of Callosobruchus chinensis were charged and the dish was covered with a cap and kept in a constant temperature chamber at 25° C. for 24 hours. Each percent mortality was calculated as that of Test 6.

A further test relates to Tetranychus telarius (L). Put plainly: Test 6: mortality of larvae and adults of Tetranychus telarius on kidney bean leaf. Particulars: foliar, 72 h, leaf dipped, wettable powder of Composition No. 5, three days after treatment, read-out: Percent mortality. The test is classed as in vivo. As for the experimental part: Young seedling of kidney bean treated to cut off leaves except one primordial leaf was transplanted in a cup and about 30 of larvae and adults of Tetranychus telarius (L) were inoculated on the primordial leaf. This was dipped for 10 seconds in each solution obtained by diluting each wettable powder of Composition No. 5 containing each active ingredient with water at the concentration of 800 ppm and was dried in air and was kept in a constant temperature chamber with lighting at 28° C. Three days after the treatment, mortality was measured and each percent mortality was calculated as follows. [formula]

For `O=[N+]([O-])c1cc(C(F)(F)F)c(Cl)c([N+](=O)[O-])c1Nc1ncc(C(F)(F)F)cc1Cl` [Compound No. 7, N-(3-chloro-5-trifluoromethyl-2-pyridyl)-2,6-dinitro-3-chloro-4-trifluoromethylaniline], the mortality at 800 ppm in the test with Plutella xylostella is 100%. The “minimum growth inhibition concentration” value is given as < 1 with Diaporthe citri, < 1 with Alternaria solani, < 1 in the test on Venturia inaequalie and 100 with Phytophthora infestans. The pest or weed control at 100 ppm in the test with Rhizoctonia solani and with Pyricularia orzae was 100% in each case. This compound also came in with a Protective value in test [1] of 100%. Besides, the pest or weed control at 500 ppm in the test on Plasmopara viticola and in the test on Sphaerotheca fuliginea was 100% each time. In the test on Pyricularia orzae, the pest or weed control at 12.5 ppm came out at 98%. Besides, in the test with Pyricularia orzae, the pest or weed control at 25 ppm came out at 100%. Further, in the test on Botrytis cinerea (62.5 ppm), the pest or weed control at 62.5 ppm was 100%. Also, the pest or weed control at 250 ppm with Botrytis cinerea is 100%.
For the compound `O=[N+]([O-])c1cc([N+](=O)[O-])c(Nc2ncc(Cl)cc2Br)c(C(F)(F)F)c1` [Compound No. 62], the mortality at 800 ppm with Plutella xylostella came out at 100%. The pest or weed control at 100 ppm in the test on Rhizoctonia solani and in the test with Sphaerotheca fuliginea (100 ppm) was 100% each time. Besides, the mortality at 400 µg/dish in the test with Callosobruchus chinensis was 100%.
With `O=[N+]([O-])c1cc(C(F)(F)F)cc([N+](=O)[O-])c1Nc1ncc(Cl)cc1Cl` [compound 3, N-(3,5-dichloro-2-pyridyl)-2,6-dinitro-4-trifluoromethylaniline], in the test on Tetranychus telarius (L), the mortality at 800 ppm came out at 100%. Also, the “minimum growth inhibition concentration” value in the test with Diaporthe citri was 100; in the test with Alternaria solani, 10; in the test on Venturia inaequalie, < 1; with Phytophthora infestans, 100. Moreover, the pest or weed control at 100 ppm with Rhizoctonia solani and in the test with Pyricularia orzae was 100% throughout. Moreover, the mortality at 400 µg/dish in the test on Callosobruchus chinensis is 100%. This compound displayed a Protective value in [1] of 100%. In addition, the pest or weed control at 500 ppm with Sphaerotheca fuliginea was 100%.
Turning to `O=[N+]([O-])c1cc(C(F)(F)F)c(Cl)c([N+](=O)[O-])c1Nc1ncc(Cl)cc1Cl` [compound 4, N-(3,5-dichloro-2-pyridyl)-2,6-dinitro-3-chloro-4-trifluoromethylaniline], the “minimum growth inhibition concentration” value in the test with Diaporthe citri was 100; in the test on Alternaria solani, 100; with Venturia inaequalie, < 1; with Phytophthora infestans, > 100. Moreover, the results for the pest or weed control at 100 ppm in the test with Rhizoctonia solani and in the test with Pyricularia orzae were 93% and 100%, respectively. Moreover, in test [1], the Protective value was 100%. In addition, the pest or weed control at 500 ppm in the test on Plasmopara viticola was determined as 100%.
As for `Cc1nc(Nc2c([N+](=O)[O-])cc(C(F)(F)F)c(Cl)c2[N+](=O)[O-])c(Cl)cc1Cl` [compound 8, N-(3,5-dichloro-6-methyl-2-pyridyl)2,6-dinitro-3-chloro-4-trifluoromethylaniline], the pest or weed control at 100 ppm in the test with Rhizoctonia solani was determined as 90%; with Pyricularia orzae, 100%. The compound also gave a Protective value in [1] of 100%.
`Cc1c(Cl)cnc(Nc2c([N+](=O)[O-])cc(C(F)(F)F)c(Cl)c2[N+](=O)[O-])c1Cl` [compound 12] displayed a Protective value in [1] of 75%. For the same compound, the pest or weed control at 100 ppm in the test with Pyricularia orzae was 100%.
With `O=[N+]([O-])c1cc(C(F)(F)F)c(Cl)c([N+](=O)[O-])c1Nc1ccc(Cl)nc1Cl` [compound 14], the pest or weed control at 100 ppm with Rhizoctonia solani and in the test on Pyricularia orzae was 100% each time. Moreover, in test [1], the Protective value was determined as 100%. Further, in the test with Sphaerotheca fuliginea, the pest or weed control at 500 ppm stood at 95%. Besides, in the test with Botrytis cinerea, the pest or weed control at 250 ppm was 95%.
For the compound `O=[N+]([O-])c1cc(C(F)(F)F)c(Cl)c([N+](=O)[O-])c1Nc1ncc(Br)cc1Cl` [compound 20], in the test with Plasmopara viticola, the pest or weed control at 500 ppm turned out to be 100%. For the same compound, the pest or weed control at 100 ppm in the test with Pyricularia orzae turned out to be 100%.
`O=[N+]([O-])c1cc(C(F)(F)F)cc([N+](=O)[O-])c1Nc1nc(Cl)c(Br)cc1C(F)(F)F` [compound 26]: the mortality at 800 ppm in the test on Tetranychus telarius (L) is 100%. In addition, the pest or weed control at 100 ppm in the test on Rhizoctonia solani and in the test with Pyricularia orzae was 100% each time. For the same compound, the Protective value in test [1] is on record as 90%. Also, the pest or weed control at 500 ppm with Plasmopara viticola was found to be 93%; in the test with Sphaerotheca fuliginea, 100%. Further, the pest or weed control at 250 ppm in the test with Botrytis cinerea stood at 85%.
On to `O=[N+]([O-])c1cc(C(F)(F)F)c(Cl)c([N+](=O)[O-])c1Nc1nc(Cl)c(C(F)(F)F)cc1Br` [compound 33], for which the pest or weed control at 100 ppm in the test on Rhizoctonia solani and in the test with Pyricularia orzae was 100% each time. In addition, the pest or weed control at 500 ppm stood at 85% in the test with Plasmopara viticola and 100% with Sphaerotheca fuliginea. In the test with Botrytis cinerea, this compound registered a pest or weed control at 250 ppm of 100%.
On to `O=[N+]([O-])c1cc(C(F)(F)F)cc([N+](=O)[O-])c1Nc1nc(Cl)c(C(F)(F)F)cc1Cl` [compound 34], for which the mortality at 800 ppm in the test on Tetranychus telarius (L) worked out at 100%. Further, the pest or weed control at 100 ppm with Rhizoctonia solani and in the test on Pyricularia orzae was 100% throughout. The results for the pest or weed control at 500 ppm in the test on Plasmopara viticola and with Sphaerotheca fuliginea were 83% and 100%, respectively. Moreover, the pest or weed control at 250 ppm with Botrytis cinerea was 100%.
Consider `O=[N+]([O-])c1cc([N+](=O)[O-])c(Nc2ncc(Cl)cc2Cl)c(C(F)(F)F)c1` [compound 60, N-(3,5-dichloro-2-pyridyl)-2,4-dinitro-6-trifluoromethylaniline], for which the mortality at 800 ppm in the test with Plutella xylostella stood at 100%. Moreover, the pest or weed control at 100 ppm in the test with Rhizoctonia solani worked out at 100%. The mortality at 400 µg/dish in the test on Callosobruchus chinensis was determined as 100%. For the same compound, the pest or weed control at 50 ppm in the test on Pyricularia orzae is 100%.
Regarding `O=[N+]([O-])c1cc([N+](=O)[O-])c(Nc2ncc(Br)cc2Br)c(C(F)(F)F)c1` [compound 61], the mortality at 800 ppm in the test with Plutella xylostella was 100%. For the same compound, the pest or weed control at 100 ppm in the test with Rhizoctonia solani was 100%. For the same compound, the mortality at 400 µg/dish in the test on Callosobruchus chinensis is 100%. Further, the pest or weed control at 50 ppm in the test on Pyricularia orzae amounted to 100%.
Regarding `O=[N+]([O-])c1cc([N+](=O)[O-])c(Nc2ncc(Br)cc2Cl)c(C(F)(F)F)c1` [compound 63], the mortality at 800 ppm in the test on Plutella xylostella amounted to 100%. In the test on Rhizoctonia solani, the pest or weed control at 100 ppm turned out to be 100%. In addition, the mortality at 400 µg/dish in the test with Callosobruchus chinensis stood at 100%.
With `O=[N+]([O-])c1cc([N+](=O)[O-])c(Nc2ncc(C(F)(F)F)cc2Cl)c(C(F)(F)F)c1` [compound 65], the mortality at 800 ppm in the test on Plutella xylostella is 100%. In addition, the pest or weed control at 100 ppm in the test with Rhizoctonia solani was found to be 100%. Besides, in the test with Callosobruchus chinensis, the mortality at 400 µg/dish was found to be 100%. Also, the pest or weed control at 50 ppm in the test with Pyricularia orzae stood at 100%.
Regarding `CC(=O)N(c1ncc(C(F)(F)F)cc1Cl)c1c([N+](=O)[O-])cc(C(F)(F)F)c(Cl)c1[N+](=O)[O-]` [compound 88, N-acetyl-N-(3-chloro-5-trifluoromethyl-2-pyridyl)-2,6-dinitro-3-chloro-4-trifluoromethylaniline], in the test with Rhizoctonia solani, the pest or weed control at 100 ppm was 100%. Moreover, the pest or weed control at 500 ppm in the test with Plasmopara viticola is 100%.
